Where “and” joins values, the source holds several entries; their conditions need not be identical. Equal values may be shown once. Entries after “also recorded” stand apart in the source; their conditions may differ. Marks after values point to notes of the source that are not given here.
How the values were obtained:
[1] = compared with p277; cited from earlier work
[2] = test system: Peripheral mononuclear cells (PBMC) of IDDM patients; assay: T-cell proliferative response of PBMC from newly diagnosed IDDM patients (Example 3); format: cell-based, human; settings: for T-cell proliferative response (SI): antigen 10 μg/ml, 6 days, SI more than 2.0 positive
Procedure: To determine the T-cell responses to the various hsp60 peptides, lymphocytes from the peripheral blood of newly diagnosed (2 weeks-4 months) IDDM patients were tested in a proliferation assay. 10-20 ml of blood were removed into a sterile tube containing heparin as anti-coagulant and diluted in PBS 1:2. Peripheral mononuclear cells (PBMC) were isolated by centrifuging the blood over a lymphoprep layer. The PBMC were tested for proliferation in triplicates, in the presence of the various antigens (10 μg/ml) for 6 days using the incorporation of [^3H]-thymidine as a measure of proliferation. The antigens tested were human hsp60 or the hsp60 peptides p277(Val^6-Val^11), p12, p32 and control peptide p278. The T cell proliferative response is depicted as stimulation index (SI): The ratio between peptide-stimulated thymidine incorporation and background (no antigen added) thymidine incorporation by the T cells.

NOD/Lt female mice = assay: Treatment of NOD mice with peptides in IFA: diabetes and mortality (Example 2); format: in vivo; settings: 100 μg peptide in IFA s.c., nine-week old NOD/Lt females; for Diabetes (%): persistent blood glucose over 11.1 mmol/l at 25 weeks of age
Procedure: (iv) Treatment and follow-up. Peptides, […], in PBS, were emulsified with an equal volume of IFA and injected subcutaneously into 10-week-old NOD females as described (Elias and Cohen, 1995). Control mice received an equal volume of PBS emulsified in IFA. The mice were monitored monthly for non-fasting blood glucose at 10am using the Blood Glucose Sensor (MediSense. Inc., Waltham, Mass.). […] Histological examination of the islets of the pancreas was done on sections stained with hematoxylin and eosin. The sections were scored independently by two observers who both were unaware of the identity of the groups. The chi square test was used to ascertain the statistical differences between the various treatments.
To test whether the p12 and p32 peptides can block the progression of diabetes as p277(Val^6-Val^11), the p277(Val6-Val^11), p12 or p32 peptides (100 μg in a 0.1 cc emulsion of IFA) were administered subcutaneously to groups of 10-12 nine-week old NOD/Lt female mice of the Jackson Laboratory, Bar-Harbor, Me. Diabetes, determined as persistent blood glucose levels over 11.1 mmol/l, was tested at 25 weeks of age. Control mice were untreated or were treated with p278.

[3] = test system: draining popliteal lymph node lymphocytes; assay: T-cell proliferation of draining lymph node cells of NOD mice immunized with hsp60 peptides in CFA (Example 1, FIG. 2); format: cell-based; settings: NOD mice immunized with peptide emulsified in CFA in hind foot pads, assayed after 10 days
Procedure: (§1) (iii) T-Cell proliferation to peptides. Mice. Nine week old NOD mice or mice of other strains were immunized in the hind foot pads with 0.1 ml of an emulsion containing 25 μg peptide in complete Freund's adjuvant (CFA; Difco, Detroit, Mich.) mixed with an equal volume of phosphate-buffered saline (PBS). The draining popliteal lymph nodes were removed 10 days later and suspensions of lymphocytes in triplicate cultures were tested for proliferation in the presence of the various peptides (5 μg/ml) using the incorporation of [^3H]-thymidine as described (Elias et al., 1991).
The immunogenicity of the hsp60 peptides p12, p32, p277(Val^6-Val^11) and p278 in NOD mice was tested by immunizing the mice with the peptides emulsified in CFA in the hind foot pads, and assaying the proliferative responses of draining lymph node cells after 10 days as described above in section iii(a).

female NOD mice = assay: Peptide treatment of 10-week old NOD mice, development of diabetes (Example 4, FIG. 4); format: in vivo; settings: single s.c. injection in IFA at 10 weeks, observed through 8 months of age, vs IFA alone
Procedure: FIG. 4 is a graph showing the effect of peptide administration on diabetes. Groups of 10-20 NOD mice were treated at 10 weeks of age with 100 μg of mouse p12, p277, p35-GAD or MT-p278 in IFA, or IFA alone. The mice were bled monthly and followed for the onset of hyperglycemia.
(iv) Treatment and follow-up. Peptides, […], in PBS, were emulsified with an equal volume of IFA and injected subcutaneously into 10-week-old NOD females as described (Elias and Cohen, 1995). Control mice received an equal volume of PBS emulsified in IFA. The mice were monitored monthly for non-fasting blood glucose at 10am using the Blood Glucose Sensor (MediSense. Inc., Waltham, Mass.). Mice with a blood glucose greater than 11.1 mmol/L were considered to be diabetic; this concentration of glucose was greater than 3 standard deviations above the mean blood glucose concentration measured in non-diabetic mice (Elias and Cohen, 1995). Histological examination of the islets of the pancreas was done on sections stained with hematoxylin and eosin. The sections were scored independently by two observers who both were unaware of the identity of the groups. The chi square test was used to ascertain the statistical differences between the various treatments.
Following a protocol shown to be effective with mouse p277(Elias et al., 1991; Elias and Cohen, 1994; Elias and Cohen, 1995), groups of 10-week old female NOD mice were treatedby a single subcutaneous injection of each peptide ([…]) emulsified in IFA.

[4] = test system: serum antibodies of the IgG1, IgG2a and IgG2b isotypes; assay: Serum anti-peptide antibody isotypes by ELISA in peptide-treated NOD mice (FIG. 5); format: in vivo; settings: for antibody titers of the IgG1 and IgG2b isotypes: peptide-treated NOD mice, sera diluted 1:50, ELISA
Procedure: FIGS. 5A-5D show the IgG1, IgG2a and IgG2b antibody isotypes in response to peptide treatment. Mice were treated as described in the legend to FIG. 4. Individual samples were analyzed for antibodies to mouse p12 A; p277 B; GAD-p35 C; and MT-p278 D, of the IgG1, IgG2a and IgG2b isotypes. Similar effects were obtained in two experiments. The results are presented as the absorbance at 405 nm (OD) of 10 individual mice in each group. The level of significance of the prevalence of IgG1 and IgG2b antibodies in groups A and B compared to C and D is P<0.001. The differences between the levels of IgG1 and IgG2b antibodies compared to the IgG2a antibodies in groups A and B were significant (P<0.001). There was no cross-reactivity between the antibodies (not shown).
(v) Serum Antibodies. Mice were bled monthly to detect antibody responses. The ELISA assay was done as described (Elias et al., 1991). Briefly, flat bottom Maxi-sorb plates (Nunc, Roskilde, Denmark) were coated, for the detection of anti-peptide antibodies, with […] of peptide in PBS, at a concentration of […] for 2 h at room temperature followed by over night incubation at 4° C. After incubation with peptide, the plates were washed and blocked for 2 h at 37° C. with 7% BSA (Sigma) in PBS. Sera were diluted 1:50 then added for 2 h at 37° C., followed by incubation for 2 h with […] of goat anti-mouse IgG (gamma chain Fc specific) conjugated to alkaline phosphatase (Jackson, Philadelphia, Pa.). After washing, the plates were incubated with the substrate, diethanolamine (Sigma) and read using an ELISA reader at 405 nm.
Successful treatment of STZ-induced diabetes with mouse peptide p277 was associated with the appearance of anti-peptide antibodies predominantly of the IgG1 and IgG2b isotypes (Elias and Cohen, 1996). The peptide-treated NOD mice for their serum antibodies was therefore examined. […] Thus, effectiveness in inhibiting diabetes was associated with the induction of an antibody response mainly of the IgG1 and IgG2b isotypes.

[5] = test system: spleens of female NOD mice; assay: Spontaneous T-cell responses in spleens of female NOD mice (longitudinal study); format: cell-based; settings: female NOD mice at ages 3-16 weeks
draining lymph nodes = assay: T-cell proliferative responses of NOD mice to peptides (Example 4, FIG. 3); format: cell-based; settings: NOD mice immunized with 25 μg peptide in IFA, lymph nodes 10 days later, 20 μg/ml
Procedure: FIG. 3 is a graph showing T-cell proliferative responses of NOD mice to peptides. Groups of three NOD mice were […] with peptides mouse p12, mouse p277, GAD-p35 and MT-p278 in IFA each at a dose of 25 μg in IFA. The draining lymph nodes were removed 10 days later and assayed for proliferative responses to the corresponding peptide at the concentrations of 5, 10, 20, and 50 μg/ml. The stimulation at the optimal concentration of 20 μg/ml is shown. The following ranges of cpm were obtained in medium controls: mouse p12, 881; mouse p277, 1243; MT-p278, 698 and GAD-p35 1430. Peptide mouse p38 is a peptide derived from mouse hsp60 (556-573), which has no sequence homology with the tested peptides and serves as a negative control of specificity. […] Each assay was done in triplicates for which the SD values are indicated by the bars. There was no cross-reactivity between the peptides (not shown).
as §1, with “1991). The results are shown as the stimulation index (SI): the ratio of the mean cpm in the presence of the test peptide to the mean cpm of control cultures without the peptide. Standard errors were always less than 10% of the means.” for “1991).”
Spontaneous T cell responses in pre-diabetic NOD mice were detected to the mouse p277 peptide (Elias et al., 1991; Birk et al., 1996) and to larger fragments of the mouse hsp60 molecule that contained the mouse p277 sequence (Birk et al., 1996). […] Other peptides immunogenic for NOD mice are the MT-p278 peptide (residues 458-474 in the Mycobacterial hsp60 molecule), and GAD-p35 (residues 524-543 in the GAD65 molecule).

p277(Val^6): p277 variant with cysteine at position 6 replaced by valine (VLGGGVALLRCIPALDSLTPANED; p277 peptide (437-460); UniProt P10809 437-460, looked up, variant C442V)
activity in the treatment of diabetes [1]: as active as p277

NEDQKIGIEIIKRTLKI [p278, human hsp60 residues 458-474; control peptide]
T-cell proliferative response (SI) ([2]; Patient 1): 0.5 | T-cell proliferative response (SI) ([2]; Patient 2): 0.8 | T-cell proliferative response (SI) ([2]; Patient 3): 0.7 | T-cell proliferative response (SI) ([2]; Patient 4): 0.9 | Mortality (%) (NOD/Lt female mice): 45% | therapeutic effect in treatment of diabetes (NOD/Lt female mice): no therapeutic effect | Diabetes (%) (NOD/Lt female mice): 90% | immunogenicity (proliferative responses of draining lymph node cells) [3]: non-immunogenic

hsp60: human 60 KDa heat shock protein (SEQ ID NO:1)
T-cell proliferative response (SI) ([2]; Patient 1): 5.6 | T-cell proliferative response (SI) ([2]; Patient 2): 7.5 | T-cell proliferative response (SI) ([2]; Patient 3): 8.0 | T-cell proliferative response (SI) ([2]; Patient 4): 3.4 | T-cell proliferative response (SI) ([2]; Patient 5): 1.2 | T-cell proliferative response (SI) ([2]; Patient 6): 6.7 | T-cell proliferative response (SI) ([2]; Patient 7): 10.3 | T-cell proliferative response (SI) ([2]; Patient 8): 1.3 | patients that responded ([2]; of 8 newly diagnosed IDDM patients, SI more than 2.0): 6/8

EIIKRTLKIPAMTIAKNAGV [p32]
Mortality (%) (NOD/Lt female mice): 25* % | therapeutic effect in treatment of diabetes (NOD/Lt female mice): effective in treatment of diabetes | Diabetes (%) (NOD/Lt female mice): 30% and 50* % | immunogenicity (proliferative responses of draining lymph node cells) [3]: strongly immunogenic

EEIAQVATISANGDKDIGNI [mouse p12]
development of diabetes (female NOD mice): significantly protected; also recorded: effective in inhibiting the development of diabetes | antibody titers of the IgG1 and IgG2b isotypes [4]: effective in inducing strong antibody titers | spontaneous T-cell responses [5]: no spontaneous responses | immunogenicity (T-cell proliferative response) (draining lymph nodes): strong response

p277(Val^11): p277 variant with cysteine at position 11 replaced by valine (VLGGGCALLRVIPALDSLTPANED; p277 peptide (437-460); UniProt P10809 437-460, looked up, variant C447V)
activity in the treatment of diabetes [1]: as active as p277

SRLSKVAPVIKARMMEYGTT [GAD-p35, peptide from the GAD65 molecule (524-543)]
development of diabetes (female NOD mice): no different than was treatment with IFA alone | mice that made specific IgG1 antibodies ([4]; 10 individual mice per group, ELISA): none | titers of IgG2b antibodies ([4]; compared with mouse p12 and mouse p277 groups): significantly lower titers | antibody titers of the IgG1 and IgG2b isotypes [4]: did not respond as strongly | immunogenicity (T-cell proliferative response) (draining lymph nodes): immunogenic, but less so

EEIAQVATISANGDKEIGNI [p12]
Mortality (%) (NOD/Lt female mice): 10* % | therapeutic effect in treatment of diabetes (NOD/Lt female mice): effective in treatment of diabetes | Diabetes (%) (NOD/Lt female mice): 20% | immunogenicity (proliferative responses of draining lymph node cells) [3]: strongly immunogenic

Reference: patent publication US6682897B1, “Peptides derived from human heat protein 60 for treatment of diabetes, compositions, methods and kits” (Yeda Research and Development Co. Ltd., priority 1995, dated 2004)
